Assay results reported in PMC4472440, “Structure-Dependent Immune Modulatory Activity of Protegrin-1 Analogs” (Antibiotics, 2014).
Where no end group is shown, it is not given here.

What was measured:
[1] = system: meningococcal LOS (TLR4 ligand); assay: Inhibition of meningococcal LOS activity in macrophages (Table 1); assay type: cell-based, Neisseria meningitidis; details: peptide 2 µg/mL preincubated with meningococcal LOS 30 min at 37 °C, macrophages stimulated overnight; read-out behind the % not stated in Table 1
Experimental: (§1) Human THP-1 (monocyte-like cells) and murine RAW264 macrophages were stimulated with TLR ligands with or without preincubation with PG-1 and its analogs (Table 1). Purified meningococcal CPS samples were freshly dissolved in pyrogen-free sterile H2O at 1 mg/mL stock concentration and vortexed for 2 min. Working CPS concentrations (ranging from 100 µg/mL to 1 µg/mL) were made in duplicate wells using sterile PBS by serial fold dilutions in the 96-well tissue culture plates (Becton Dickinson, Franklin Lakes, NJ, USA) at 50 µL final volumes. PG-1 analogs (2 µg/mL) or PBS equivalent volumes were added to designated wells and preincubated for 30 min at 37 °C. Freshly grown THP-1 cells and murine macrophages, each adjusted to 10^6 cell/mL and 250 µL aliquots, were dispensed into each well at a final cell density of 250 × 10^3 in the designated 96-well plates. The plates were incubated overnight at 37 °C with 5% CO2 and humidity. Supernatants from stimulated cells were harvested and stored at −20 °C until use.
(§2) The cytokines TNFα and IL-1β, released from THP-1 cells, were quantified by DuoSet ELISA (R&D Systems), as previously described. […]
(§3) Freshly grown adherent RAW264 macrophages were harvested, washed and re-suspended in Dulbecco’s complete media, counted and adjusted to 10^6 cell/mL. […] Nitric oxide release was quantified using the Greiss chemical method, as previously described.

[2] = system: meningococcal capsular polysaccharide (CPS) polymers (TLR2 and TLR4 ligand); assay: Inhibition of meningococcal CPS polymer activity in macrophages (Table 1); assay type: cell-based, Neisseria meningitidis; details: peptide 2 µg/mL preincubated with meningococcal CPS polymers 30 min at 37 °C, macrophages stimulated overnight; read-out behind the % not stated in Table 1
Experimental: as §1, §2, §3

[3] = system: RAW264 macrophages induced with meningococcal LOS; assay: Nitric oxide release from RAW264 macrophages induced with meningococcal LOS, Greiss method; assay type: cell-based, murine; details: RAW264, LOS doses preincubated with 2 µg/mL peptide 30 min at 37 °C, overnight, Figure 6, result in words
Experimental: Figure 6 PG-1 analogs neutralized meningococcal LOS bioactivity and inhibited nitric oxide release. Nitric oxide was released from murine RAW264 macrophages induced overnight with meningococcal LOS doses pre-incubated with or without 2 µg/mL of PG-1 or its analogs for 30 min at 37 °C. Nitric oxide release was measured by the Greiss method. Error bars represent ± SD from the mean of duplicate measurements. This experiment is representative of two independent experiments.
as §1, with “Freshly grown THP-1 cells and murine macrophages, each adjusted to 10^6 cell/mL and 250 µL aliquots, were dispensed into each well at a final cell density of 250 × 10^3 in the designated 96-well plates. The plates were incubated overnight at 37 °C with 5% CO2 and humidity. Supernatants from stimulated cells were harvested and stored at −20 °C until use.” left out
as §3

[4] = system: RAW264 macrophages induced with meningococcal CPS polymers; assay: Nitric oxide release from RAW264 macrophages induced with meningococcal CPS polymers, Greiss method; assay type: cell-based, murine; details: RAW264, CPS doses preincubated with 2 µg/mL peptide 30 min at 37 °C, overnight, Figure 7, result in words
Experimental: Figure 7 PG-1 analogs neutralized meningococcal capsular polysaccharide (CPS) polymer activity and inhibited nitric oxide release. CPS polymers were purified from the endotoxin-deficient serogroup B meningococcal NMB-lpxA mutant designated CPS. Nitric oxide was released from murine RAW264 macrophages induced overnight with doses of meningococcal CPS polymers pre-incubated with or without 2 µg/mL of PG-1 or its analogs for 30 min at 37 °C. Nitric oxide release was measured by the Greiss method. Error bars represent ±SD from the mean of duplicate measurements. This experiment is representative of two independent experiments.
Human THP-1 (monocyte-like cells) and murine RAW264 macrophages were stimulated with TLR ligands with or without preincubation with PG-1 and its analogs (Table 1). Purified meningococcal CPS samples were freshly dissolved in pyrogen-free sterile H2O at 1 mg/mL stock concentration and vortexed for 2 min. […]
as §3

Row | Substance | LOS activity inhibition (%) [1] [%] | CPS activity inhibition (%) [2] [%] | Inhibition of nitric oxide release (neutralization of LOS) [3] | Inhibition of nitric oxide release (neutralization of CPS) [4]
1 | Protegrin-1 (RGGRLCYCRRRFCVCVGR; not fully specified; cysteine pairing not given here) [Compound 1, native porcine PG-1, 18-residue β-hairpin peptide with two disulfide bridges] | 99.9 | 99 |  | 
2 | Compound 8: linearized non-cysteine PG-1 analog with alanine replacements (RGGRLAYARRRFAVAVGR-NH2) | 33 | 23 | failed to inhibit | failed to inhibit
